Laboratory results reported in PMC11364095 (Science Advances, 2024).

System: E. coli ATCC 35218
Experiment: Resistance development assay
Format: cell-based
Conditions: after 16 passages, serial passaging in sub-MIC concentrations

Compound | fold increase of MIC against E. coli ATCC 35218
colistin | 128 fold
O=C(O)c1cn(C2CC2)c2cc(N3CCNCC3)c(F)cc2c1=O [ciprofloxacin] | 256 fold
